Earlier results on 50 compounds are cited in patent US20240156825A1, “USE OF SELECTIVE VEGFR2 AND FGFR1 INHIBITORS” (Fountain Therapeutics Inc., priority 2022, published 2024).

The target of one series is VEGFR2 (Homo sapiens, UniProt P35968). The settings on record: reported IC50 to VEGFR2, read-out: VEGFR2 IC50_μM, cited from earlier work.
In a further series the test system is any gene target. The settings on record: next lowest IC50 value to any gene target, read-out: Min IC50_μM, cited from earlier work.
Where [1] appears, read: Table 3, selective inhibitors of VEGFR2.

Like-named read-outs stand apart in the source and are kept apart here.

Chain of VEGFR2 (P35968 20-1356, species assumed): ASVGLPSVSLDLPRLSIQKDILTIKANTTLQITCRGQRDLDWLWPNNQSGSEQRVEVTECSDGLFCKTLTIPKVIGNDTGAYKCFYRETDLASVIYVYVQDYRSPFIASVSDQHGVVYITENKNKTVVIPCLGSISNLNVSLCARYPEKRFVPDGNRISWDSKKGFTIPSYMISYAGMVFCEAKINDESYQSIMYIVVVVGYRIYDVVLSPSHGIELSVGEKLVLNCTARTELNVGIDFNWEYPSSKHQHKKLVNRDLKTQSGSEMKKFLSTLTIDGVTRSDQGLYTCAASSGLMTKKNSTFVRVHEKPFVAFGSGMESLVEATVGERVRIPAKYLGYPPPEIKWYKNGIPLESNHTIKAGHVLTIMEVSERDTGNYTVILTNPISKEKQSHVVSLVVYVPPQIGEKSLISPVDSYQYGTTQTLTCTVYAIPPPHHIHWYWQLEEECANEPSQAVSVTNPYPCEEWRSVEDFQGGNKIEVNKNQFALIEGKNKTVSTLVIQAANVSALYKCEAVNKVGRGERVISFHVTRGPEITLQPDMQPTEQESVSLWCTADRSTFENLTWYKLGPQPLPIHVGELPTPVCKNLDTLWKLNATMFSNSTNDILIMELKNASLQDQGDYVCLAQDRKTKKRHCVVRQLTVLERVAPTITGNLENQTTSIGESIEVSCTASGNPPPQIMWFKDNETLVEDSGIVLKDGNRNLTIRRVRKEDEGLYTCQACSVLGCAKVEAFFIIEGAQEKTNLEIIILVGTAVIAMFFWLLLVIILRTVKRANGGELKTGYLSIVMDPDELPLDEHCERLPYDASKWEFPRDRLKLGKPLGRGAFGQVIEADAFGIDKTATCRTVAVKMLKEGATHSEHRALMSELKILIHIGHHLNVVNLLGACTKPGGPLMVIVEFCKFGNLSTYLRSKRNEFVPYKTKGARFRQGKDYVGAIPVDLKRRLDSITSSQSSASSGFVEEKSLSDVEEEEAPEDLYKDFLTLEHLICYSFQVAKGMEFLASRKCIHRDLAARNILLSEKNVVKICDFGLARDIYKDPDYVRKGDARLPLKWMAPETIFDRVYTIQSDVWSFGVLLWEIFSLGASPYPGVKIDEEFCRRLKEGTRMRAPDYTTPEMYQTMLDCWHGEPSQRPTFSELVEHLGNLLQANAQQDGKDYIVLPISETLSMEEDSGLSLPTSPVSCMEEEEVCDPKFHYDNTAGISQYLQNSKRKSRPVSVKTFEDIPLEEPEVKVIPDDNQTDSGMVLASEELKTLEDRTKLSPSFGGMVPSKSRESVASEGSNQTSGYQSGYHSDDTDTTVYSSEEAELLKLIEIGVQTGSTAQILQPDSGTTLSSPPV

For `COc1cc2c(Nc3ccc(Br)c(Cl)c3)ncnc2cc1OC1CCN(C)C1` (stereo not shown) [compound 57802786], the IC50 at VEGFR2 and in the series with any gene target was 50 nM each time.
In the case of `COc1cc2c(Nc3ccc(Cl)c(Cl)c3F)ncnc2cc1OC[C@@H]1CN2CCC[C@H]2CO1` [compound 57802793], the IC50 at VEGFR2 (setting [1]) and with any gene target (Table 3) was 50 nM throughout.
As to `CC(C)Oc1cc2c(Nc3ccc(Cl)c(Cl)c3)ncnc2cc1OCC1CN(C)CCO1` (stereo not shown) [compound 57802797], the IC50 at VEGFR2 and in the series with any gene target was 50 nM each time.
For `COc1cc2c(Nc3ccc(Cl)c(Cl)c3)ncnc2cc1OC[C@@H]1O[C@@H](OC)[C@@H](O)[C@H](O)[C@H]1O` [compound 57802800], the IC50 on VEGFR2 and with any gene target was 50 nM each time.
Take `COc1cc2c(Nc3ccc(Cl)c(Cl)c3Cl)ncnc2cc1OCC1CN(C)CCO1` (stereo not shown) [compound 57802801]: the IC50 on VEGFR2 and in the series on any gene target was 50 nM in each case.
For the compound `COc1cc2c(Nc3ccc(Br)c(Cl)c3F)ncnc2cc1OC[C@@H]1CN2CCC[C@H]2C(=O)N1` [compound 57802807], the IC50 on VEGFR2 and in the series on any gene target was 50 nM in each case.
In the case of `CCS(=O)(=O)N1CCOC(COc2cc3ncnc(Nc4ccc(Cl)c(Cl)c4)c3cc2OC)C1` (stereo not shown) [compound 57802817], the IC50 on VEGFR2 (setting [1]) and in the series with any gene target (Table 3) was 50 nM in each case.
Turning to `COc1cc2c(Nc3ccc(Cl)c(Cl)c3)ncnc2cc1OCC1CN(C)C(C)(C)C(=O)O1` (stereo not shown) [compound 57802818], the IC50 on VEGFR2 (setting [1]) and in the series with any gene target (Table 3) was 50 nM throughout.
For `CCCCN1CCOC(COc2cc3ncnc(Nc4ccc(Cl)c(Cl)c4)c3cc2OC)C1` (stereo not shown) [compound 57802833], the IC50 at VEGFR2 (setting [1]) and with any gene target (Table 3) was 50 nM in each case.
As for `COc1cc2c(Nc3ccc(Br)c(C)c3)ncnc2cc1OCC1CN(C)CCO1` (stereo not shown) [compound 57802842], the IC50 at VEGFR2 (setting [1]) and in the series with any gene target (Table 3) was 50 nM each time.
For `COc1cc2c(Nc3cc(F)c(Br)c(F)c3)ncnc2cc1OCC1CN(C)CCO1` (stereo not shown) [compound 57802849], the IC50 at VEGFR2 (setting [1]) and in the series with any gene target (Table 3) was 50 nM in each case.
On to `COc1cc2c(Nc3cc(Cl)c(Cl)cc3F)ncnc2cc1OCC1CN(C)C(C)(C)CO1` (stereo not shown) [compound 57802853], for which the IC50 on VEGFR2 (setting [1]) and in the series on any gene target (Table 3) was 50 nM each time.
`COc1cc2c(Nc3ccc(Cl)c(Cl)c3)ncnc2cc1OCc1csc(C2CCN(C)CC2)n1` [compound 57802861]: the IC50 on VEGFR2 (setting [1]) and in the series on any gene target (Table 3) was 50 nM throughout.
Regarding `COc1cc2c(Nc3ccc(Cl)c(Cl)c3)ncnc2cc1OCc1csc(C2CCCCN2)n1` (stereo not shown) [compound 57802866], the IC50 at VEGFR2 (setting [1]) and with any gene target (Table 3) was 50 nM throughout.
For `COc1cc2c(Nc3ccc(Br)c(Cl)c3C)ncnc2cc1OCC1CN(C)CCO1` (stereo not shown) [compound 57802867], the IC50 on VEGFR2 (setting [1]) and with any gene target (Table 3) was 50 nM throughout.
`COc1cc2c(Nc3ccc(Cl)c(Cl)c3)ncnc2cc1OCC1CN(C(=O)C2CCCC2)CCO1` (stereo not shown) [compound 57802868]: the IC50 on VEGFR2 (setting [1]) and with any gene target (Table 3) was 50 nM throughout.
As to `COc1cc2c(Nc3ccc(Cl)c(Cl)c3)ncnc2cc1OCC1CN(C(=O)c2c(C)noc2C)CCO1` (stereo not shown) [compound 57802871], the IC50 at VEGFR2 (setting [1]) and in the series on any gene target (Table 3) was 50 nM throughout.
For the compound `COc1cc2c(Nc3ccc(Cl)c(Cl)c3)ncnc2cc1OCC1CN(C(N)=NC#N)CCO1` (stereo not shown) [compound 57802878], the IC50 on VEGFR2 (setting [1]) and with any gene target (Table 3) was 50 nM in each case.
Regarding `COc1cc2c(Nc3ccc(Cl)c(Cl)c3)ncnc2cc1OC[C@H]1CN2CCC[C@@H]2CO1` [compound 57802880], the IC50 on VEGFR2 (setting [1]) and with any gene target (Table 3) was 50 nM each time.
In the case of `COc1cc2c(Nc3ccc(Cl)c(Cl)c3)ncnc2cc1OCCC1CN(C)C(C)(C)CO1` (stereo not shown) [compound 57802889], the IC50 at VEGFR2 (setting [1]) and in the series on any gene target (Table 3) was 50 nM throughout.
Regarding `COc1cc2c(Nc3ccc(Br)c(Cl)c3F)ncnc2cc1OC[C@@H]1CN(C)CC(=O)N1` [compound 57802892], the IC50 at VEGFR2 (setting [1]) and with any gene target (Table 3) was 50 nM in each case.
As for `COc1cc2c(Nc3ccc(Cl)c(Cl)c3)ncnc2cc1OCC1CN(S(C)(=O)=O)CCO1` (stereo not shown) [compound 57802901], the IC50 at VEGFR2 (setting [1]) and in the series with any gene target (Table 3) was 50 nM throughout.
As for `COc1cc2c(Nc3ccc(Cl)c(Cl)c3)ncnc2cc1OCC1CN(C(=NC#N)N2CCCC2)CCO1` (stereo not shown) [compound 57802904], the IC50 at VEGFR2 (setting [1]) and in the series on any gene target (Table 3) was 50 nM each time.
On to `COc1cc2c(Nc3ccc(Br)c(Cl)c3F)ncnc2cc1OC[C@@H]1CN2CCC[C@H]2CO1` [compound 57802905], for which the IC50 on VEGFR2 (setting [1]) and in the series with any gene target (Table 3) was 50 nM throughout.
For the compound `CCC(=O)N1CCOC(COc2cc3ncnc(Nc4ccc(Cl)c(Cl)c4)c3cc2OC)C1` (stereo not shown) [compound 57802906], the IC50 on VEGFR2 (setting [1]) and with any gene target (Table 3) was 50 nM throughout.
On to `COc1cc2c(Nc3ccc(Cl)c(Cl)c3)ncnc2cc1OCc1csc(N2CCN(C)CC2)n1` [compound 57802910], for which the IC50 at VEGFR2 (setting [1]) and in the series with any gene target (Table 3) was 50 nM each time.
Take `COc1cc2c(Nc3cc(F)c(Br)cc3F)ncnc2cc1OCC1CN(C)CCO1` (stereo not shown) [compound 57802916]: the IC50 on VEGFR2 (setting [1]) and in the series with any gene target (Table 3) was 50 nM in each case.
For `CCN1CCCCC1c1nc(COc2cc3ncnc(Nc4ccc(Cl)c(Cl)c4)c3cc2OC)no1` (stereo not shown) [compound 57802919], the IC50 at VEGFR2 (setting [1]) and in the series with any gene target (Table 3) was 50 nM in each case.
With `CCN1CCCC(c2nc(COc3cc4ncnc(Nc5ccc(Cl)c(Cl)c5)c4cc3OC)no2)C1` (stereo not shown) [compound 58013772], the IC50 at VEGFR2 (setting [1]) and in the series on any gene target (Table 3) was 50 nM each time.
`COc1cc2c(Nc3ccc(Br)c(Cl)c3)ncnc2cc1O[C@@H]1CCOC1` [compound 58013780]: the IC50 at VEGFR2 (setting [1]) and in the series with any gene target (Table 3) was 50 nM in each case.
`CCN1CCC(c2nc(COc3cc4ncnc(Nc5ccc(Cl)c(Cl)c5)c4cc3OC)no2)CC1` [compound 58013796]: the IC50 on VEGFR2 (setting [1]) and in the series on any gene target (Table 3) was 50 nM in each case.
Regarding `COc1cc2c(Nc3ccc(Cl)c(Cl)c3)ncnc2cc1OCC1CN2CCOCC2CO1` (stereo not shown) [compound 58013804], the IC50 at VEGFR2 (setting [1]) and in the series on any gene target (Table 3) was 50 nM throughout.
Regarding `COc1cc2c(Nc3ccc(F)c(Cl)c3F)ncnc2cc1OC[C@@H]1CN2CCC[C@H]2CO1` [compound 58013819], the IC50 at VEGFR2 (setting [1]) and in the series with any gene target (Table 3) was 50 nM throughout.
On to `C[C@@H](Nc1ncnc2[nH]c(-c3ccc(CNCc4ccc(C(=O)NO)cc4)cc3)cc12)c1ccccc1` [compound 59756709], for which the IC50 at VEGFR2 (setting [1]) and with any gene target (Table 3) was 100 nM throughout.
With `COc1cc2c(Nc3cc(Cl)c(Cl)cc3F)ncnc2cc1OC[C@@H]1CN2CCOC[C@H]2CO1` [compound 66838463], the IC50 at VEGFR2 (setting [1]) and in the series on any gene target (Table 3) was 50 nM each time.
As to `COc1cc2c(Nc3cc(Cl)c(Br)cc3F)ncnc2cc1OC[C@@H]1CN2CCOC[C@H]2CO1` [compound 66838467], the IC50 at VEGFR2 (setting [1]) and in the series with any gene target (Table 3) was 50 nM in each case.
With `COc1cc2c(Nc3ccc(Cl)c(Cl)c3F)ncnc2cc1OC[C@@H]1CN2CCOC[C@H]2CO1` [compound 66838539], the IC50 at VEGFR2 (setting [1]) and in the series on any gene target (Table 3) was 50 nM each time.
Regarding `COc1cc2c(Nc3ccc(Cl)c(Cl)c3)ncnc2cc1OC[C@H]1CN2CCC[C@H]2CO1` [compound 66838546], the IC50 on VEGFR2 (setting [1]) and in the series on any gene target (Table 3) was 50 nM in each case.
For the compound `COc1cc2c(Nc3ccc(Br)c(Cl)c3Cl)ncnc2cc1OC[C@@H]1CN2CCOC[C@H]2CO1` [compound 66838558], the IC50 at VEGFR2 (setting [1]) and in the series on any gene target (Table 3) was 50 nM each time.
As to `COc1cc2c(Nc3ccc(F)c(Cl)c3F)ncnc2cc1OC[C@@H]1CN2CCOC[C@H]2CO1` [compound 66838567], the IC50 on VEGFR2 (setting [1]) and with any gene target (Table 3) was 50 nM throughout.
In the case of `COc1cc2c(Nc3cc(Cl)c(Br)cc3F)ncnc2cc1OC[C@@H]1CN2CCC[C@H]2CO1` [compound 66839071], the IC50 at VEGFR2 (setting [1]) and in the series with any gene target (Table 3) was 50 nM in each case.
Turning to `COc1cc2c(Nc3ccc(Br)c(Cl)c3Cl)ncnc2cc1OC[C@@H]1CO[C@H]2[C@@H]1OC[C@@H]2OC` [compound 66954887], the IC50 on VEGFR2 (setting [1]) and in the series with any gene target (Table 3) was 50 nM throughout.
As for `COc1cc2c(Nc3cc(Cl)c(Cl)cc3F)ncnc2cc1OC[C@@H]1CO[C@H]2[C@@H]1OC[C@@H]2OC` [compound 66954904], the IC50 at VEGFR2 (setting [1]) and in the series with any gene target (Table 3) was 50 nM each time.
As for `COc1cc2c(Nc3ccc(Cl)c(Cl)c3)ncnc2cc1OC[C@@H]1CO[C@H]2[C@@H]1OC[C@@H]2OC` [compound 66955051], the IC50 on VEGFR2 (setting [1]) and with any gene target (Table 3) was 50 nM in each case.
Consider `CCN(CC)[C@H]1CO[C@H]2[C@@H]1OC[C@@H]2Oc1cc2ncnc(Nc3ccc(Br)c(Cl)c3)c2cc1OC` [compound 67163520], for which the IC50 on VEGFR2 (setting [1]) and in the series with any gene target (Table 3) was 50 nM throughout.
Take `COc1cc2c(Oc3ccc(NC(=O)C4(C(=O)Nc5ccc(F)cc5)CC4)cc3F)ccnc2cc1OCCCC(=O)NO` [compound 71466525]: the IC50 is 12 nM at VEGFR2 and 19 nM in the series with any gene target.
For the compound `O=C(NCCc1ccc(O)c(Br)c1)/C(Cc1cc(Br)c(O)c(Oc2ccc(CCNC(=O)/C(Cc3cc(Br)c(O)c(-c4cc(C/C(=N\O)C(=O)NCCc5ccc(O)c(Br)c5)cc(Br)c4O)c3)=N/O)cc2Br)c1)=N/O` [compound 71524406], the IC50 at VEGFR2 (setting [1]) and in the series on any gene target (Table 3) was 600 nM each time.
Take `COc1ccc2c(c1)/C(=C/c1cc3c([nH]1)CCN(C(=O)N1CCN(C)CC1)C3)C(=O)N2` [compound 71714231]: the IC50 at VEGFR2 (setting [1]) and in the series on any gene target (Table 3) was 6 nM in each case.
As for `CN1CCC(Nc2ccc3c(c2)/C(=C/c2cc4c([nH]2)CCN(C(=O)N2CCOCC2)C4)C(=O)N3)CC1` [compound 71714235], the IC50 at VEGFR2 (setting [1]) and with any gene target (Table 3) was 3 nM throughout.
Turning to `COc1cc2c(Nc3ccc(Cl)cc3F)ncnc2cc1OCC1CCNCC1` [compound 73349643], the IC50 was 50 nM at VEGFR2 and 60 nM with any gene target.
